From US20250268913A1, “PKC INHIBITORS FOR THE TREATMENT OF SEPTIC CHOLESTASIS WITH CTM TARGETING” (SMARTDYELIVERY GMBH, priority 2018, published 2025)

How the values were obtained:
PCI model, C57/BL6 mice = experiment: Survival rate in cholestasis model under septic conditions, peritoneal contamination and infection (PCI); format: in vivo; details: free drug alone, 4 mg/kg body weight
Description: In order to mimic the septic cholestasis, a systemic inflammation was induced using the well-established peritoneal contamination and infection (PCI) model. In this model, a human feces suspension is applied intraperitoneally (i.p.) and rapidly triggers sepsis with liver dysfunction. For each batch of human stool, the dose is titrated carefully for a survival between 0% and 20% within two weeks.
To find the adequate dose of stool, different doses were tested. 6 h after i.p. application of the stool, 8-12 weeks old C57/BL6 mice or FVB/N mice were treated with the nanoparticles or the free drug respectively.
A systemic infection/sepsis with organ failure was induced in male C57/BL6 mice by using the PCI model. For this purpose, a human fecal suspension (2.5 μl/g BW for stool batch1 and 6 μl/g for stool batch 2, respectively) was injected intraperitoneally (without anesthesia) with weight adaptation, thus triggering peritonitis with subsequent systemic infection. […] The animals were closely monitored and scored every 6 hours for signs of infection in order to timely. […] With the evaluated dose of 6 μl/g BW stool and additional antibiotic therapy, all mice died within three days, as shown in the Kaplan-Meier-Schätzer diagram (FIG. 14, right panel). […]

[1] = compared to placebo; cited from earlier work
[2] = cited from earlier work

O=C1NC(=O)/C(=C\c2ccc3nccnc3c2)S1 [AS605240]
activity of free drug (survival) (PCI model, C57/BL6 mice): active

CN(C)CCCn1cc(C2=C(c3c[nH]c4ccccc34)C(=O)NC2=O)c2ccccc21 [BIM-1]
activity of free drug (survival) (PCI model, C57/BL6 mice): active

CC[C@H](Nc1ncnc2[nH]cnc12)c1nc2cccc(F)c2c(=O)n1-c1ccccc1 [idelalisib]
risk of developing sepsis as adverse effect [1]: five-fold higher

CO[C@@H]1[C@H](N(C)C(=O)c2ccccc2)C[C@H]2O[C@]1(C)n1c3ccccc3c3c4c(c5c6ccccc6n2c5c31)C(=O)NC4 [midostaurin]
Serious adverse reactions due to infections and gastrointestinal disorders ([2]; most common serious adverse reactions): ≥ 20% | on-treatment deaths from disease progression attributed to infection ([2]; number of deaths): 4 | adverse reaction sepsis occurring in patients ([2]; page 8 of the professional information): ≥ 9 % of patients | Grade ≥3 adverse reactions reported (fatigue, sepsis, gastrointestinal hemorrhage, pneumonia, diarrhea, febrile neutropenia) ([2]; patients): ≥ 5% | Serious adverse reactions ([2]; patients): 68 % of patients | Treatment discontinuation due to adverse reaction ([2]; patients): 21 % of patients
